# Measured values from patent US10183022B2, “Pharmaceutical composition for treating ulcerative colitis” (EA Pharma Co., Ltd., priority 2014, dated 2019).
# Key:
# Format in all cases: in vivo, human
# [1] = tested on: ulcerative colitis patients in an active stage; experiment: Clinical study, 960 mg orally 3 times a day for 8 weeks: adverse events
# Method: (§1) The compound of Example 1 or the compound of Comparative Example 1 was orally administered after meals 3 times a day. The number of the given tablets was 8 per administration (i.e., the amount of the compound (1) of Example 1 administered was 960 mg per administration). The administration period was 8 weeks. The compounds were administered until the timing after the breakfast on the day before the assessment day at Week 8.
# [2] = tested on: ulcerative colitis patients in an active stage; experiment: Clinical study, 960 mg orally 3 times a day for 8 weeks: subscore for bloody stool of Mayo score, bloody-stool disappearance rate; parameters: Cases by subscore for bloody stool, figure in parentheses: unit not given here
# Method: as §1
# (2) Bloody Stool [Investigation Timings: Weeks 0, 2, 4, and 8 (or Discontinuation Time)]
# Based on the contents described in the symptom-recording diaries, the investigators or sub-investigators investigated the states of bloody stool in 3 days immediately before each assessment day. Note that when the endoscopic examination on the large intestine was conducted, the investigation days were set to be the closest three days excluding the day of the endoscopic examination on the large intestine, the following day, and if a pre-treatment was performed for the endoscopic examination on the large intestine, the pre-treatment day.
# The bloody stool state on the most severe day among the investigated three days was scored according to the following criteria.
# [3] = tested on: ulcerative colitis patients in an active stage; experiment: Clinical study, 960 mg orally 3 times a day for 8 weeks: subscore for mucosal finding (large intestine endoscopic examination), mucosal remission rate; parameters: Cases by subscore for mucosal finding, figure in parentheses: unit not given here
# Method: as §1
# (3) Mucosal Finding (Large Intestine Endoscopic Examination) [Investigation Timings: Weeks 0 and 8 (or Discontinuation Time)]
# The investigators or sub-investigators conducted the endoscopic examination on the large intestine, and checked the state of the large intestinal mucosa.
# The endoscopic examination was conducted during a time from 7 days before Week 8 (or discontinuation time) until a medical interview at Week 8 (or discontinuation time). Note that the endoscopic examination on the large intestine at Week 8 (or discontinuation time) was conducted by the same physician at Week 0 when the situation allowed.
# The assessment at the site served as the “subscore for mucosal finding” of the Mayo score. At Week 8 (or discontinuation time) also, the same site as that at Week 0 was assessed as the “subscore for mucosal finding” of the Mayo score.
# A mucosal remission rate is a proportion of subjects each having a Mayo score with a subscore for mucosal finding of 1 point or less.
structure (smiles),measurement,setting,value
"COC(=O)[C@H](Cc1ccc(-n2c(=O)c3cc(N(C)C)ccc3n(C)c2=O)cc1)NC(=O)c1c(Cl)cccc1Cl [Example 1, methyl(2S)-2-(2,6-dichlorobenzamide)-3-{4-[6-(dimethylamino)-1-methyl-2,4-dioxo-1,4-dihydroquinazolin-3(2H)-yl]phenyl}propanoate]",Safety (adverse event analysis),[1]; 960 mg orally 3 times a day for 8 weeks,no problem in safety
same,Severe adverse events,[1]; 8-week study period,no severe adverse event occurred
same,Incidence rate of moderate adverse events,[1]; 8-week study period (2/51 cases),3.9%
same,"Cases by subscore for bloody stool, figure in parentheses","[2]; Week 0, score 1",45.1
same,Number of cases by subscore for bloody stool,"[2]; Week 0, score 1",23
same,"Cases by subscore for bloody stool, figure in parentheses","[2]; Week 0, score 2",47.1
same,Number of cases by subscore for bloody stool,"[2]; Week 0, score 2",24
same,"Cases by subscore for bloody stool, figure in parentheses","[2]; Week 0, score 3",7.8
same,Number of cases by subscore for bloody stool,"[2]; Week 0, score 3",4
same,"Cases by subscore for bloody stool, figure in parentheses","[2]; Week 2, score 0",9.8
same,Number of cases by subscore for bloody stool,"[2]; Week 2, score 0",5
same,"Cases by subscore for bloody stool, figure in parentheses","[2]; Week 2, score 1",54.9
same,Number of cases by subscore for bloody stool,"[2]; Week 2, score 1",28
same,"Cases by subscore for bloody stool, figure in parentheses","[2]; Week 2, score 2",33.3
same,Number of cases by subscore for bloody stool,"[2]; Week 2, score 2",17
same,"Cases by subscore for bloody stool, figure in parentheses","[2]; Week 2, score 3",2.0
same,Number of cases by subscore for bloody stool,"[2]; Week 2, score 3",1
same,"Number of cases, cross tabulation of subscore for bloody stool","[2]; Week 2 score 0, Week 0 score 1",2
same,"Number of cases, cross tabulation of subscore for bloody stool","[2]; Week 2 score 0, Week 0 score 2",2
same,"Number of cases, cross tabulation of subscore for bloody stool","[2]; Week 2 score 0, Week 0 score 3",1
same,"Number of cases, cross tabulation of subscore for bloody stool","[2]; Week 2 score 1, Week 0 score 1",18
same,"Number of cases, cross tabulation of subscore for bloody stool","[2]; Week 2 score 1, Week 0 score 2",8
same,"Number of cases, cross tabulation of subscore for bloody stool","[2]; Week 2 score 1, Week 0 score 3",2
same,"Number of cases, cross tabulation of subscore for bloody stool","[2]; Week 2 score 2, Week 0 score 1",3
same,"Number of cases, cross tabulation of subscore for bloody stool","[2]; Week 2 score 2, Week 0 score 2",14
same,"Number of cases, cross tabulation of subscore for bloody stool","[2]; Week 2 score 2, Week 0 score 3",0
same,"Number of cases, cross tabulation of subscore for bloody stool","[2]; Week 2 score 3, Week 0 score 1",0
same,"Number of cases, cross tabulation of subscore for bloody stool","[2]; Week 2 score 3, Week 0 score 2",0
same,"Number of cases, cross tabulation of subscore for bloody stool","[2]; Week 2 score 3, Week 0 score 3",1
same,"Cases by subscore for bloody stool, figure in parentheses","[2]; Week 4, score 0",35.3
same,Number of cases by subscore for bloody stool,"[2]; Week 4, score 0",18
same,"Cases by subscore for bloody stool, figure in parentheses","[2]; Week 4, score 1",43.1
same,Number of cases by subscore for bloody stool,"[2]; Week 4, score 1",22
same,"Cases by subscore for bloody stool, figure in parentheses","[2]; Week 4, score 2",19.6
same,Number of cases by subscore for bloody stool,"[2]; Week 4, score 2",10
same,"Cases by subscore for bloody stool, figure in parentheses","[2]; Week 4, score 3",2.0
same,Number of cases by subscore for bloody stool,"[2]; Week 4, score 3",1
same,"Number of cases, cross tabulation of subscore for bloody stool","[2]; Week 4 score 0, Week 0 score 1",9
same,"Number of cases, cross tabulation of subscore for bloody stool","[2]; Week 4 score 0, Week 0 score 2",8
same,"Number of cases, cross tabulation of subscore for bloody stool","[2]; Week 4 score 0, Week 0 score 3",1
same,"Number of cases, cross tabulation of subscore for bloody stool","[2]; Week 4 score 1, Week 0 score 1",12
same,"Number of cases, cross tabulation of subscore for bloody stool","[2]; Week 4 score 1, Week 0 score 2",9
same,"Number of cases, cross tabulation of subscore for bloody stool","[2]; Week 4 score 1, Week 0 score 3",1
same,"Number of cases, cross tabulation of subscore for bloody stool","[2]; Week 4 score 2, Week 0 score 1",2
same,"Number of cases, cross tabulation of subscore for bloody stool","[2]; Week 4 score 2, Week 0 score 2",7
same,"Number of cases, cross tabulation of subscore for bloody stool","[2]; Week 4 score 2, Week 0 score 3",1
same,"Number of cases, cross tabulation of subscore for bloody stool","[2]; Week 4 score 3, Week 0 score 1",0
same,"Number of cases, cross tabulation of subscore for bloody stool","[2]; Week 4 score 3, Week 0 score 2",0
same,"Number of cases, cross tabulation of subscore for bloody stool","[2]; Week 4 score 3, Week 0 score 3",1
same,"Difference in bloody-stool disappearance rates, Example 1 vs Comparative Example 1 (placebo)",[2]; Week 8,29.4%
same,Bloody-stool disappearing cases,"[2]; Week 8, 51 cases analyzed",25
same,Bloody-stool disappearance rate,"[2]; Week 8, all subjects",49.0%
same,"Cases by subscore for bloody stool, figure in parentheses","[2]; Week 8, score 0",49.0
same,Number of cases by subscore for bloody stool,"[2]; Week 8, score 0",25
same,"Cases by subscore for bloody stool, figure in parentheses","[2]; Week 8, score 1",37.3
same,Number of cases by subscore for bloody stool,"[2]; Week 8, score 1",19
same,"Cases by subscore for bloody stool, figure in parentheses","[2]; Week 8, score 2",11.8
same,Number of cases by subscore for bloody stool,"[2]; Week 8, score 2",6
same,"Cases by subscore for bloody stool, figure in parentheses","[2]; Week 8, score 3",2.0
same,Number of cases by subscore for bloody stool,"[2]; Week 8, score 3",1
same,"Number of cases, cross tabulation of subscore for bloody stool","[2]; Week 8 score 0, Week 0 score 1",13
same,"Number of cases, cross tabulation of subscore for bloody stool","[2]; Week 8 score 0, Week 0 score 2",9
same,"Number of cases, cross tabulation of subscore for bloody stool","[2]; Week 8 score 0, Week 0 score 3",3
same,"Number of cases, cross tabulation of subscore for bloody stool","[2]; Week 8 score 1, Week 0 score 1",8
same,"Number of cases, cross tabulation of subscore for bloody stool","[2]; Week 8 score 1, Week 0 score 2",11
same,"Number of cases, cross tabulation of subscore for bloody stool","[2]; Week 8 score 1, Week 0 score 3",0
same,"Number of cases, cross tabulation of subscore for bloody stool","[2]; Week 8 score 2, Week 0 score 1",2
same,"Number of cases, cross tabulation of subscore for bloody stool","[2]; Week 8 score 2, Week 0 score 2",4
same,"Number of cases, cross tabulation of subscore for bloody stool","[2]; Week 8 score 2, Week 0 score 3",0
same,"Number of cases, cross tabulation of subscore for bloody stool","[2]; Week 8 score 3, Week 0 score 1",0
same,"Number of cases, cross tabulation of subscore for bloody stool","[2]; Week 8 score 3, Week 0 score 2",0
same,"Number of cases, cross tabulation of subscore for bloody stool","[2]; Week 8 score 3, Week 0 score 3",1
same,"Cases by subscore for mucosal finding, figure in parentheses","[3]; Week 0, score 2",88.2
same,Number of cases by subscore for mucosal finding,"[3]; Week 0, score 2",45
same,"Cases by subscore for mucosal finding, figure in parentheses","[3]; Week 0, score 3",11.8
same,Number of cases by subscore for mucosal finding,"[3]; Week 0, score 3",6
same,"Difference in mucosal remission rates, Example 1 vs Comparative Example 1 (placebo)",[3]; Week 8,29.4%
same,Mucosal remission cases,"[3]; Week 8, 51 cases analyzed",30
same,Mucosal remission rate,"[3]; Week 8, all subjects",58.8%
same,"Cases by subscore for mucosal finding, figure in parentheses","[3]; Week 8, score 0",17.0
same,Number of cases by subscore for mucosal finding,"[3]; Week 8, score 0",8
same,"Cases by subscore for mucosal finding, figure in parentheses","[3]; Week 8, score 1",46.8
same,Number of cases by subscore for mucosal finding,"[3]; Week 8, score 1",22
same,"Cases by subscore for mucosal finding, figure in parentheses","[3]; Week 8, score 2",34.0
same,Number of cases by subscore for mucosal finding,"[3]; Week 8, score 2",16
same,"Cases by subscore for mucosal finding, figure in parentheses","[3]; Week 8, score 3",2.1
same,Number of cases by subscore for mucosal finding,"[3]; Week 8, score 3",1
same,"Number of cases, cross tabulation of subscore for mucosal finding","[3]; Week 8 score 0, Week 0 score 2",7
same,"Number of cases, cross tabulation of subscore for mucosal finding","[3]; Week 8 score 0, Week 0 score 3",1
same,"Number of cases, cross tabulation of subscore for mucosal finding","[3]; Week 8 score 1, Week 0 score 2",22
same,"Number of cases, cross tabulation of subscore for mucosal finding","[3]; Week 8 score 1, Week 0 score 3",0
same,"Number of cases, cross tabulation of subscore for mucosal finding","[3]; Week 8 score 2, Week 0 score 2",13
same,"Number of cases, cross tabulation of subscore for mucosal finding","[3]; Week 8 score 2, Week 0 score 3",3
same,"Number of cases, cross tabulation of subscore for mucosal finding","[3]; Week 8 score 3, Week 0 score 2",0
same,"Number of cases, cross tabulation of subscore for mucosal finding","[3]; Week 8 score 3, Week 0 score 3",1
same,Mucosal remission rate,[3]; body weight 50 kg or more and disease period less than 5 years (16/22 cases),72.7%
